In US20240254087A1, “SELECTIVE, PARTIAL, AND ARRESTIN-BIASED 5-HT2A AGONISTS WITH UTILITY IN VARIOUS DISORDERS” (Saint Joseph's University, priority 2021, published 2024):
Where two headings read alike, the source gives them in different places.

How the values were obtained:
Set-up in all cases: expressed in transfected cells; host or cells: HEK293T, transient
5-HT2A [1] = target: T1, 5-HT2A (Homo sapiens, UniProt P28223); experiment: cell-based; settings: for Emax: read-out: 5-HT2A Gq Emax (% 5-HT), BRET, mean ± SEM
Procedure: (§1) After at least 18-24 hours, transfected cells were plated in poly-lysine coated 96-well white clear bottom cell culture plates in DMEM containing 1% dialyzed FBS at a density of 25-40,000 cells in 200 μL per well and incubated overnight. After approximately 20-24 hours, media was decanted and cells were washed with 60 μL of drug buffer (1×HBSS, 20 mM HEPES, pH 7.4), followed by 60 μL of drug buffer and pre-incubated in a humidified atmosphere at 37° C. before receiving drug stimulation. Drug stimulation was induced by adding 30 μL of a solution of drug (3X) diluted in McCorvy buffer (1×HBSS, 20 mM HEPES, pH 7.4, supplemented with 0.3% BSA fatty acid free, 0.03% ascorbic acid) and plates were incubated at the indicated time and temperature. Fifteen minutes before reading, 10 μL of the RLuc substrate, either coelenterazine h for β-Arrestin recruitment BRET^1 or coelenterazine 400a for Gq dissociation BRET^2 (Prolume/Nanolight, 5 μM final concentration) was addedper well. […] The BRET ratios of fluorescence/luminescence were calculated per well and were plotted as a function of drug concentration using Graphpad Prism 8 (Graphpad Software Inc., San Diego, CA).

5-HT2A [2] = target: T1, 5-HT2A; experiment: cell-based; settings: for Emax: read-out: 5-HT2A β-arrestin Emax (% 5-HT), BRET, mean ± SEM
Procedure: as §1

5-HT2B = 5-HT2B (Homo sapiens, UniProt P41595); experiment: BRET Gq dissociation, 5-HT2B; format: cell-based
Procedure: After at least 18-24 hours, transfected cells were plated in poly-lysine coated 96-well white clear bottom cell culture plates in DMEM containing 1% dialyzed FBS at a density of 25-40,000 cells in 200 μL per well and incubated overnight. After approximately 20-24 hours, media was decanted and cells were washed with 60 μL of drug buffer (1×HBSS, 20 mM HEPES, pH 7.4), followed by 60 μL of drug buffer and pre-incubated in a humidified atmosphere at 37° C. before receiving drug stimulation. Drug stimulation was induced by adding 30 μL of a solution of drug (3X) diluted in McCorvy buffer (1×HBSS, 20 mM HEPES, pH 7.4, supplemented with 0.3% BSA fatty acid free, 0.03% ascorbic acid) and plates were incubated at the indicated time and temperature. Fifteen minutes before reading, 10 μL of the RLuc substrate, either coelenterazine h for β-Arrestin recruitment BRET^1 or coelenterazine 400a for Gq dissociation BRET^2 (Prolume/Nanolight, 5 μM final concentration) was addedper well. Plates were read for luminescence at 485 nm and fluorescent eYFP emission at 530 nm for BRET^1 and at 400 nm and fluorescent GFP2 emission at 510 nm for BRET2 at 1 second per well using a Mithras LB940 (Berthold). The BRET ratios of fluorescence/luminescence were calculated per well and were plotted as a function of drug concentration using Graphpad Prism 8 (Graphpad Software Inc., San Diego, CA).

5-HT2C = target: T2, 5-HT2C (Homo sapiens, UniProt P28335); experiment: BRET Gq dissociation, 5-HT2C; format: cell-based; settings: for Emax: read-out: 5-HT2C Gq Dissociation (BRET) EMAX ± SEM (%5-HT)
T2 sequence (P28335 33-458): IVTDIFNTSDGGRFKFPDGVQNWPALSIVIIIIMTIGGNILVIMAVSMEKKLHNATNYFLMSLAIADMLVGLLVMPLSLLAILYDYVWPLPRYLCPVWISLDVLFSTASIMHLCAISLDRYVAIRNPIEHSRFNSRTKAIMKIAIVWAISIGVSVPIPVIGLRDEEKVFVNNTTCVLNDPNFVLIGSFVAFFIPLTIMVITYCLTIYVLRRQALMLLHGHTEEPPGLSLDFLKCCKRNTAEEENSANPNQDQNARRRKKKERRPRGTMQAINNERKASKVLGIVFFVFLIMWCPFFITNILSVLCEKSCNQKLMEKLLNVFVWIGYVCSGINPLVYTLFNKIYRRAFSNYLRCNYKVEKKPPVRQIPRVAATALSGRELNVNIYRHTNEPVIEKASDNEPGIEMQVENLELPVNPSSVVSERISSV
Procedure: as §1

[3] = BRET, mean ± SEM, read-out: 5-HT2A β-arrestin recruitment pEC50 (converted)
[4] = read-out: 5-HT2C Gq Dissociation (BRET) pEC50 ± SEM (converted)
[5] = BRET, mean ± SEM, read-out: 5-HT2A Gq dissociation pEC50 (converted)

5-HT2B, sequence (P41595 whole entry): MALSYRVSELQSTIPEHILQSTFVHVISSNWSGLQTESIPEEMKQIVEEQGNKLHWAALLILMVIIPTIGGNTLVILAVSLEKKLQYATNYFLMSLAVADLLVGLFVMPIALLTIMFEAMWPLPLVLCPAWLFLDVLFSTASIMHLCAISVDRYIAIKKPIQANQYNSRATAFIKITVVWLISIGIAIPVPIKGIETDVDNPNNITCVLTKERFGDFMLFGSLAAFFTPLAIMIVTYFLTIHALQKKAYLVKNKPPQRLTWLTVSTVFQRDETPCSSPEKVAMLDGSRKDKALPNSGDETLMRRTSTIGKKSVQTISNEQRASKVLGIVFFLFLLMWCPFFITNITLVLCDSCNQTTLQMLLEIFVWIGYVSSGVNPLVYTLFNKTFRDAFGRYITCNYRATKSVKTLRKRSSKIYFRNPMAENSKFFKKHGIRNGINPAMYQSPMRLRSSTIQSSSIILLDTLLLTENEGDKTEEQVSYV
T1 sequence (P28223 whole entry): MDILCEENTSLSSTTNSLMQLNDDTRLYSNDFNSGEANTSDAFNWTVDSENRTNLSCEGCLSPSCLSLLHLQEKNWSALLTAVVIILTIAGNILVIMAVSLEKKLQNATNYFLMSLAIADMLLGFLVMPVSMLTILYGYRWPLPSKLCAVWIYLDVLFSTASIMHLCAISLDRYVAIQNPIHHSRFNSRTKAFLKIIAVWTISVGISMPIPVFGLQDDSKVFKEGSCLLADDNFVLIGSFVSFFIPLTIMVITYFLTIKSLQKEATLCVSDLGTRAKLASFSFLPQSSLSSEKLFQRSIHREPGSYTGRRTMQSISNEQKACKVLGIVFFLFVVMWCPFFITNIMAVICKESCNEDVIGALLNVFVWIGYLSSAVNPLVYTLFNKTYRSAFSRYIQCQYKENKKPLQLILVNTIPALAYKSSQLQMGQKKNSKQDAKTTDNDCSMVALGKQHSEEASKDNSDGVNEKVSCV

`COc1cc(OC)c(OC)cc1CCNCc1cccc(-c2ccccc2)c1` [(62)] was tested, and the EC50 (5-HT2A [1]) was 182 nM, the Emax (5-HT2A [1]) was 23.7 ± 2.1% and the EC50 (5-HT2A [2]; [3]) was 56.2 nM. The Emax (5-HT2A [2]) was 112 ± 6.2%, the “5-HT2B Gq Dissociation (BRET) EMAX ± SEM (%5-HT)” value (5-HT2B) was “No activity” and the “5-HT2B Gq Dissociation (BRET) pEC50 ± SEM” value (5-HT2B) was “No activity”. For the same compound, the Emax (5-HT2C) was 72.8 ± 5.2% and the EC50 (5-HT2C; [4]) was 219 nM.
Compound `COc1cc(OC)c(OC)cc1CCNCc1cccc(I)c1O` [(49)] has an EC50 (5-HT2A [1]; [5]) of 14.5 nM, an Emax (5-HT2A [1]) of 52.8 ± 1.5% and an EC50 (5-HT2A [2]; [3]) of 11.7 nM. For the same compound, the Emax (5-HT2A [2]) was 80.5 ± 5.5%, the “5-HT2B Gq Dissociation (BRET) EMAX ± SEM (%5-HT)” value (5-HT2B) was “No activity” and the “5-HT2B Gq Dissociation (BRET) pEC50 ± SEM” value (5-HT2B) was “No activity”. It also gave an Emax (5-HT2C) of 93.5 ± 3.1% and an EC50 (5-HT2C; [4]) of 26.9 nM.
`COc1cc(Br)c(CCNCc2cccc(C)c2O)cc1OC` [(43), 2-(((2-bromo-4,5-dimethoxyphenethyl)-amino)-methyl)-6-methylphenol] was tested, and the EC50 (5-HT2A [1]) was 6.46 nM, the Emax (5-HT2A [1]) was 65.4 ± 1.4% and the EC50 (5-HT2A [2]) was 6.31 nM. For the same compound, the Emax (5-HT2A [2]) was 91.7 ± 3.4%, the “5-HT2B Gq Dissociation (BRET) EMAX ± SEM (%5-HT)” value (5-HT2B) was “No activity” and the “5-HT2B Gq Dissociation (BRET) pEC50 ± SEM” value (5-HT2B) was “No activity”. For the same compound, the EC50 (5-HT2C) was 20.9 nM and the Emax (5-HT2C) was 75.4 ± 2%.
In the case of `COc1cc(CCNCc2cccc(C)c2O)ccc1Cl` [(47)], the EC50 (5-HT2A [1]; [5]) is reported as 30.9 nM, the Emax (5-HT2A [1]) is reported as 66.9 ± 1.8% and the EC50 (5-HT2A [2]; [3]) is reported as 6.92 nM. For the same compound, the Emax (5-HT2A [2]) was 80.5 ± 3.2%, the “5-HT2B Gq Dissociation (BRET) EMAX ± SEM (%5-HT)” value (5-HT2B) was “No activity” and the “5-HT2B Gq Dissociation (BRET) pEC50 ± SEM” value (5-HT2B) was “No activity”. For the same compound, the Emax (5-HT2C) was 98 ± 3.1% and the EC50 (5-HT2C; [4]) was 19.5 nM.
For `COc1cc(OC)c(OC)cc1CCNCc1cccc(C)c1C` [(50)], the EC50 (5-HT2A [1]; [5]) was 3.47 nM, the Emax (5-HT2A [1]) was 23.6 ± 1% and the EC50 (5-HT2A [2]; [3]) was 5.75 nM. The Emax (5-HT2A [2]) was 73.9 ± 5.4%, the “5-HT2B Gq Dissociation (BRET) EMAX ± SEM (%5-HT)” value (5-HT2B) was “No activity” and the “5-HT2B Gq Dissociation (BRET) pEC50 ± SEM” value (5-HT2B) was “No activity”. It also gave an Emax (5-HT2C) of 30.4 ± 2.7% and an EC50 (5-HT2C; [4]) of 1.55 nM.
For `COc1cc(Br)c(Br)c(OC)c1CCNCc1cccc2ccccc12` [(35)], the EC50 (5-HT2A [1]; [5]) was 3.89 nM, the Emax (5-HT2A [1]) was 30.2 ± 1.5% and the EC50 (5-HT2A [2]; [3]) was 1.95 nM. The “5-HT2B Gq Dissociation (BRET) EMAX ± SEM (%5-HT)” value (5-HT2B) was “No activity”, the “5-HT2B Gq Dissociation (BRET) pEC50 ± SEM” value (5-HT2B) was “No activity” and the Emax (5-HT2C) was 69.8 ± 1.3%. It also gave an EC50 (5-HT2C; [4]) of 5.5 nM.
In the case of `COc1cc(OC)c(OC)cc1CCNCc1cccc(-c2ccccc2)c1O` [(63)], the “5-HT2A Gq dissociation pEC50” value (5-HT2A [1]; BRET, mean ± SEM) is reported as “No activity”, the Emax (5-HT2A [1]) is reported as < 10% and the EC50 (5-HT2A [2]) is reported as 102 nM. For the same compound, the Emax (5-HT2A [2]) was 117 ± 14.6%, the “5-HT2B Gq Dissociation (BRET) EMAX ± SEM (%5-HT)” value (5-HT2B) was “No activity” and the “5-HT2B Gq Dissociation (BRET) pEC50 ± SEM” value (5-HT2B) was “No activity”. The Emax (5-HT2C) was 79.2 ± 2.6% and the EC50 (5-HT2C; [4]) was 51.3 nM.
`COc1cc(CCNCc2cccc3ccccc23)cc(OC)c1Br` [(31), 2-(4-bromo-3,5-dimethoxyphenyl)-N-[(naphthalen-1-yl)-methyl]ethan-1-amine] showed an EC50 (5-HT2A [1]) of 170 nM, an Emax (5-HT2A [1]) of 20.3 ± 1.9% and an EC50 (5-HT2A [2]; [3]) of 35.5 nM. The Emax (5-HT2A [2]) was 50.8 ± 3.4%, the “5-HT2B Gq Dissociation (BRET) EMAX ± SEM (%5-HT)” value (5-HT2B) was “No activity” and the “5-HT2B Gq Dissociation (BRET) pEC50 ± SEM” value (5-HT2B) was “No activity”. The Emax (5-HT2C) was 80.2 ± 2.2% and the EC50 (5-HT2C; [4]) was 41.7 nM.
